Measurements published in the supplement of paper PMC13380429.

Experiments:
[1] = test system: A549-ACE2 infected with SARS-CoV-2; test: cell count relative to DMSO; higher = less toxic; conditions: 24 h
[2] = test system: Caco-2; test: cell viability relative to DMSO; higher = less toxic; conditions: 72 h
[3] = test system: Calu-3; test: as above; conditions: 72 h
[4] = test system: HepG2; test: as above; conditions: 72 h
[5] = test system: U2OS; test: as above; conditions: 72 h
[6] = test system: Vero E6; test: as above; conditions: 72 h
[7] = test system: A549-ACE2 infected with SARS-CoV-2; test: SARS-CoV-2 infection rate relative to DMSO; higher = more infection; conditions: 24 h
[8] = test system: A549-ACE2; test: drug-induced phospholipidosis relative to tamoxifen; higher = more phospholipidosis; conditions: 24 h
[9] = test system: A549-ACE2 infected with SARS-CoV-2; test: morphology score (similarity to uninfected cells); higher = more like uninfected cells; conditions: 24 h
[10] = test system: Calu-3; test: relative viability EC50 (midpoint between 100% and the lowest measured viability); higher = less toxic; conditions: 72 h
[11] = test system: HepG2; test: as above; conditions: 72 h
[12] = test system: U2OS; test: as above; conditions: 72 h
[13] = test system: Vero E6; test: as above; conditions: 72 h
[14] = test system: Caco-2; test: drug sensitivity score (DSS) for viability; higher = more toxic; extreme values may be limits of the assay; conditions: 72 h
[15] = test system: Calu-3; test: as above; conditions: 72 h
[16] = test system: HepG2; test: as above; conditions: 72 h
[17] = test system: U2OS; test: as above; conditions: 72 h
[18] = test system: Vero E6; test: as above; conditions: 72 h
[19] = test system: Caco-2; test: relative viability EC50 (midpoint between 100% and the lowest measured viability); higher = less toxic; conditions: 72 h

COC(=O)C[C@](O)(CCC(C)(C)O)C(=O)O[C@@H]1C(OC)=C[C@]23CCCN2CCc2cc4c(cc2[C@H]13)OCO4 [harringtonine]
Conditions	SARS-CoV-2 infection rate [%]	cell count [%]	cell viability [%]	drug-induced phospholipidosis [%]	morphology score
[1], 0.3 µM	–	92	–	–	–
[1], 3 µM	–	62	–	–	–
[1], 10 µM	–	50	–	–	–
[1], 30 µM	–	37	–	–	–
[2], 1 nM	–	–	108	–	–
[2], 10 nM	–	–	94.6	–	–
[2], 100 nM	–	–	73.5	–	–
[2], 1000 nM	–	–	56.3	–	–
[2], 10000 nM	–	–	53.6	–	–
[3], 1 nM	–	–	93.2	–	–
[3], 10 nM	–	–	98.7	–	–
[3], 100 nM	–	–	81	–	–
[3], 1000 nM	–	–	34.9	–	–
[3], 10000 nM	–	–	24.9	–	–
[4], 1 nM	–	–	103	–	–
[4], 10 nM	–	–	108	–	–
[4], 100 nM	–	–	45.7	–	–
[4], 1000 nM	–	–	11.1	–	–
[4], 10000 nM	–	–	0.3	–	–
[5], 1 nM	–	–	95.9	–	–
[5], 10 nM	–	–	99.2	–	–
[5], 100 nM	–	–	46.8	–	–
[5], 1000 nM	–	–	11	–	–
[5], 10000 nM	–	–	0.9	–	–
[6], 1 nM	–	–	105	–	–
[6], 10 nM	–	–	100	–	–
[6], 100 nM	–	–	109	–	–
[6], 1000 nM	–	–	34.2	–	–
[6], 10000 nM	–	–	9.1	–	–
[7], 0.3 µM	5	–	–	–	–
[7], 3 µM	21	–	–	–	–
[7], 10 µM	12	–	–	–	–
[7], 30 µM	33	–	–	–	–
[8], 0.3 µM	–	–	–	0.19	–
[8], 0.833333 µM	–	–	–	-6.78	–
[9], 0.3 µM	–	–	–	–	0.57
[9], 3 µM	–	–	–	–	0.26
[9], 10 µM	–	–	–	–	0.27
[9], 30 µM	–	–	–	–	0.29

Conditions	drug sensitivity score	relative viability EC50 [µM]
[10]	–	0.233
[11]	–	0.0934
[12]	–	0.0946
[13]	–	0.686
[14]	11.3	–
[15]	14.3	–
[16]	24.5	–
[17]	23.5	–
[18]	12.6	–

COc1cc2c(c(OC)c1OC)-c1c(cc3c(c1OC)OCO3)CC(C)C(C)C2 (stereo not drawn) [schisandrin-B]
cell viability [%]
Conditions	[2]	[3]	[4]	[5]	[6]
1 nM	97.5	96.3	89.1	101	96
10 nM	99.5	83.3	99.3	91.8	98.5
100 nM	98.9	94.5	95.8	102	93.4
1000 nM	100	105	105	97.3	96.1
10000 nM	77.4	90.1	101	93.5	101

Conditions	drug sensitivity score	relative viability EC50 [µM]
[10]	–	> 10
[11]	–	> 10
[12]	–	> 10
[13]	–	> 10
[14]	0.8	–
[15]	0	–
[16]	0	–
[17]	0	–
[18]	0	–
[19]	–	> 10

CCCc1nn(C)c2c(=O)[nH]c(-c3cc(S(=O)(=O)N4CCN(C)CC4)ccc3OCC)nc12 [sildenafil]
cell viability [%]
Conditions	[2]	[3]	[4]	[5]	[6]
1 nM	93.7	106	96.7	99.3	98.3
10 nM	86.3	94.6	104	98.3	111
100 nM	93.8	105	99.4	101	95.1
1000 nM	84.6	91.8	102	99.9	101
10000 nM	93.9	129	81.8	103	96.1

Conditions	drug sensitivity score	relative viability EC50 [µM]
[10]	–	> 10
[11]	–	> 10
[12]	–	> 10
[13]	–	> 10
[14]	0	–
[15]	0	–
[16]	0.3	–
[17]	0	–
[18]	0	–
[19]	–	> 10

CN1CCN(c2ncc(-c3cc(Cl)cc(Cl)c3Cl)c(N)n2)CC1 [sipatrigine]
cell viability [%]
Conditions	[2]	[3]	[4]	[5]	[6]
1 nM	85.5	92.1	100	104	110
10 nM	91.1	105	103	102	107
100 nM	92.3	108	110	104	100
1000 nM	91.8	111	98.4	103	101
10000 nM	85.3	92.3	86.4	92.9	94.5

Conditions	drug sensitivity score	relative viability EC50 [µM]
[10]	–	> 10
[11]	–	> 10
[12]	–	> 10
[13]	–	> 10
[14]	0	–
[15]	0	–
[16]	0.2	–
[17]	0	–
[18]	0	–
[19]	–	> 10

OC[C@@H](O)[C@@H](O)[C@H](O)[C@@H](O)CO [sorbitol]
cell viability [%]
Conditions	[2]	[3]	[4]	[5]	[6]
1 nM	96.4	101	95.3	104	102
10 nM	105	98	84	99.5	99.9
100 nM	100	98.3	94.7	96.6	103
1000 nM	109	102	94.8	101	88.8
10000 nM	93.6	101	82.3	95.5	92.2

Conditions	drug sensitivity score	relative viability EC50 [µM]
[10]	–	> 10
[11]	–	> 10
[12]	–	> 10
[13]	–	> 10
[14]	0	–
[15]	0	–
[16]	0	–
[17]	0	–
[18]	0.3	–
[19]	–	> 10

CNC(=O)[C@@H](Cc1ccccc1)N(C)C(=O)[C@@H](Cc1ccc2ccccc2c1)N(C)C(=O)/C=C/CC(C)(C)N [tabimorelin]
cell viability [%]
Conditions	[2]	[3]	[4]	[5]	[6]
1 nM	99.8	96.4	105	99.9	95.8
10 nM	104	100	96.5	101	102
100 nM	103	100	106	96.8	101
1000 nM	95.4	104	87.3	103	102
10000 nM	92.3	88.2	96.5	98.3	99.1

Conditions	drug sensitivity score	relative viability EC50 [µM]
[10]	–	> 10
[11]	–	> 10
[12]	–	> 10
[13]	–	> 10
[14]	0	–
[15]	0	–
[16]	0.6	–
[17]	0	–
[18]	0	–
[19]	–	> 10
